The values below come from PubChem BioAssay AID1224898.

In the assay the test system is Trichuris muris adults ex vivo, WormWatcher motility, 24 h. Put plainly: motility loss in adult Trichuris muris, dose response, whole organism, ex vivo, WormWatcher (AID 1224898).

The term EC50 denotes the concentration at which the effect is half-maximal. For the molecule `O=C1COCc2cc(-c3cccnc3)ccc2N1Cc1ccc(C(F)(F)F)cc1`, the concentration for a half-maximal effect (EC50) was 26 µM.
The figure for `Cc1ccc(CN2C(=O)COCc3cc(-c4cccnc4)ccc32)cc1` is 57 µM.
The value for `Cc1ccc(CN2C(=O)COCc3cc(Br)ccc32)cc1` was 35 µM.
Take `O=C1COCc2cc(-c3cccnc3)ccc2N1CC1CCCCC1`: the EC50 was 52 µM.
Turning to `Cc1ccc(CN2C(=O)COCc3cc(-c4ccncc4)ccc32)cc1`, the concentration giving a half-maximal response (EC50) was 50 µM.
